Measured values as given in PMC10065799, “High-throughput profiling of sequence recognition by tyrosine kinases and SH2 domains using bacterial peptide display” (eLife, 2023).

What was measured:
c-Src kinase domain = c-Src kinase domain (Homo sapiens, UniProt P12931); experiment: pTyr-Var library bacterial peptide display kinase screen (enrichment scores); format: biochemical;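 as to c-Src hit?: Hit requires p below 0.05 and at least twofold variant vs reference change plus filters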
Fyn kinase domain = experiment: as above; format: biochemical, human;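 as to Fyn hit?: Hit requires p below 0.05 and at least twofold variant vs reference change plus filters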
Hck kinase domain = experiment: as above; format: biochemical, human
c-Abl kinase domain = target: T1, c-Abl kinase domain (Mus musculus, UniProt P00520); experiment: as above; format: biochemical
T1 sequence (P00520 242-493 limits assumed): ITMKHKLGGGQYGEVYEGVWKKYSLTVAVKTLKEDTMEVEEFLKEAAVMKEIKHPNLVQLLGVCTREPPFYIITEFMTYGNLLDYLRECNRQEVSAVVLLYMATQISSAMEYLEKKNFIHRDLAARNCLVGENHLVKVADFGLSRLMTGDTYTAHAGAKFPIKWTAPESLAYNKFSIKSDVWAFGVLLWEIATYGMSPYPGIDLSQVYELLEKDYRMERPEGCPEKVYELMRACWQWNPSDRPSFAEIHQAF

Jak2 = experiment: as above; format: biochemical, human
AncSZ kinase domain = experiment: as above; format: biochemical;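 as to AncSZ hit?: Hit requires p below 0.05 and at least twofold variant vs reference change plus filters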
Fer kinase domain = experiment: as above; format: biochemical, mouse
Fes = experiment: as above; format: biochemical
FGFR1 kinase domain = experiment: as above; format: biochemical, human
FGFR3 kinase domain = experiment: as above; format: biochemical, human
EPHB1 kinase domain = experiment: as above; format: biochemical, human
EPHB2 kinase domain = experiment: as above; format: biochemical, human
MERTK kinase domain = experiment: as above; format: biochemical, human
c-Src SH2 domain = c-Src SH2 domain (Homo sapiens, UniProt P12931); experiment: pTyr-Var library SH2 domain screen with SH2-dynabeads (enrichment scores); settings: sheet c-Src
SHP2 C-SH2 domain = experiment: as above
Grb2 SH2 domain = experiment: as above
[1] = target: mouse c-Abl kinase domain (residues 232-502) (mouse) (UniProt P00520)
[2] = mean of log2 of enrichment over R1-R4
[3] = pTyr-Var library, enrichment score, replicate 1
[4] = pTyr-Var library, enrichment score, replicate 3
[5] = pTyr-Var library, enrichment score, replicate 4
[6] = variant versus reference peptide
[7] = variant versus reference peptide, significant hit TRUE/FALSE
[8] = mean of log2(variant) minus mean of log2(reference)
[9] = mean of log2 enrichment of variant peptide, n = 5
[10] = mean of log2 enrichment of variant peptide, n = 4
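For c-Abl hit? in this document: Hit requires p below 0.05 and at least twofold variant vs reference change plus filters.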

Chain of mouse c-Abl kinase domain (residues 232-502) (mouse) (P00520 232-502): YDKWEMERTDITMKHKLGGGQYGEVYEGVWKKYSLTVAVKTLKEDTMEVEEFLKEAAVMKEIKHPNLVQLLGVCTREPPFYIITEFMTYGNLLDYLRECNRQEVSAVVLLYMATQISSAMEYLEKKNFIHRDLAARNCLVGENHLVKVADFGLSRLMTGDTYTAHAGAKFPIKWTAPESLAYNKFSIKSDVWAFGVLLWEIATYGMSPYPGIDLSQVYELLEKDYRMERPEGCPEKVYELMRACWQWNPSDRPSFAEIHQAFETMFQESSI

Molecule: ATGLIYIGSHD [AASDH_Y870_T865A]
- c-Src mean of log2(enrichment) (c-Src kinase domain; [2]): -1.071
- c-Src enrich. R1 (c-Src kinase domain; [3]): 0.5345
- c-Src enrich. R3 (c-Src kinase domain; [4]): 0.3128
- c-Src enrich. R4 (c-Src kinase domain; [5]): 0.6339
- c-Src difference (mean log2 variant - mean log2 reference) (c-Src kinase domain; [6]): 0.2235
- c-Src hit? (c-Src kinase domain; [7]): FALSE
- Fyn mean of log2(enrichment) (Fyn kinase domain; [2]): -1.279
- Fyn enrich. R1 (Fyn kinase domain; [3]): 0.5717
- Fyn enrich. R3 (Fyn kinase domain; [4]): 0.2668
- Fyn enrich. R4 (Fyn kinase domain; [5]): 0.4414
- Fyn difference (mean log2 variant - mean log2 reference) (Fyn kinase domain; [6]): 0.2007
- Fyn hit? (Fyn kinase domain; [7]): FALSE
- Hck mean of log2(enrichment) (Hck kinase domain; mean of log2(variant) / mean of log2(reference), R1-R4): 0.4694
- Hck enrich. R1 (Hck kinase domain; [3]): 0.8875
- Hck enrich. R3 (Hck kinase domain; [4]): 0.3766
- Hck enrich. R4 (Hck kinase domain; [5]): 0.194
- Hck difference (variant - reference) (Hck kinase domain; [6]): 0.009668
- Hck hit? (Hck kinase domain; [7]): FALSE
- c-Abl mean of log2(enrichment) (c-Abl kinase domain; [2]): -0.2804
- c-Abl enrich. R1 (c-Abl kinase domain; [3]): 0.635
- c-Abl enrich. R3 (c-Abl kinase domain; [4]): 0.7155
- c-Abl enrich. R4 (c-Abl kinase domain; [5]): 1.499
- c-Abl hit? (c-Abl kinase domain; [7]): FALSE
- Jak2 mean of log2(enrichment) (Jak2; mean of log2 of enrichment over R1-R3): -0.3116
- Jak2 enrich. R1 (Jak2; [3]): 0.8629
- Jak2 enrich. R3 (Jak2; [4]): 0.7054
- Jak2 difference (mean log2 variant - mean log2 reference) (Jak2; [6]): 0.1735
- Jak2 hit? (Jak2; [7]): FALSE
- AncSZ mean of log2(enrichment) (AncSZ kinase domain; mean of log2 of enrichment over R1-R5): -0.2868
- AncSZ enrich. R1 (AncSZ kinase domain; [3]): 0.8707
- AncSZ enrich. R3 (AncSZ kinase domain; [4]): 0.8843
- AncSZ enrich. R4 (AncSZ kinase domain; [5]): 0.9628
- AncSZ enrich. R5 (AncSZ kinase domain; pTyr-Var library, enrichment score, replicate 5): 0.6734
- AncSZ difference (mean log2 variant - mean log2 reference) (AncSZ kinase domain; [6]): 0.1813
- AncSZ hit? (AncSZ kinase domain; [7]): FALSE
- Fer mean of log2(enrichment) (Fer kinase domain; [2]): -1.02
- Fer enrich. R1 (Fer kinase domain; [3]): 0.4993
- Fer enrich. R3 (Fer kinase domain; [4]): 0.7968
- Fer enrich. R4 (Fer kinase domain; [5]): 0.4647
- Fer difference (mean log2 variant - mean log2 reference) (Fer kinase domain; [6]): 0.2779
- Fer hit? (Fer kinase domain; [7]): FALSE
- Fes mean of log2(enrichment) (Fes; mean of log2 of enrichment over R1-R6): 0.1901
- Fes enrichment (mean) (Fes; pTyr-Var library, enrichment score, mean of replicates R1-R6): 1.145
- Fes difference (mean log2 variant - mean log2 reference) (Fes; [6]): 0.6008
- difference (FGFR1 kinase domain; [8]): -0.06079
- mean of log2(variant) (FGFR1 kinase domain; [9]): -1.25
- difference (FGFR3 kinase domain; [8]): 0.03027
- mean of log2(variant) (FGFR3 kinase domain; [9]): -0.6189
- difference (EPHB1 kinase domain; [8]): 0.11
- mean of log2(variant) (EPHB1 kinase domain; [10]): -0.4876
- difference (EPHB2 kinase domain; [8]): 0.3789
- mean of log2(variant) (EPHB2 kinase domain; [10]): -0.4994
- difference (MERTK kinase domain; [8]): 0.7784
- mean of log2(variant) (MERTK kinase domain; [10]): -0.9082
- difference (c-Src SH2 domain; [8]): -0.1239
- mean of log2(variant) (c-Src SH2 domain; mean of log2 enrichment of variant peptide, R1-R3): -0.9155
- difference (SHP2 C-SH2 domain; SHP2-C SH2, mean of log2(variant) minus mean of log2(reference)): -0.2085
- mean of log2(variant) (SHP2 C-SH2 domain; SHP2-C SH2, mean of log2 enrichment of variant, R1-R3): -0.9356
- hit? (SHP2 C-SH2 domain; SHP2-C SH2, variant versus reference significant hit call): FALSE
- difference (Grb2 SH2 domain; Grb2 SH2, mean of log2(variant) minus mean of log2(reference)): -0.4428
- mean of log2(variant) (Grb2 SH2 domain; Grb2 SH2, mean of log2 enrichment of variant, R1-R3): -0.4021
- hit? (Grb2 SH2 domain; Grb2 SH2, variant versus reference significant hit call): FALSE

B1: AblTide (2014) peptide Ac-…-NH2 (peptide)
peptide: Ac-GAPEVIYATPGAKKKG-NH2
- KM (μM) of phosphorylation, Michaelis-Menten analysis, ADP-Quest assay [1]: 35 µM
